For assay [1], the target named is T1, Type-2 angiotensin II receptor (Rattus norvegicus, UniProt P35351).
T1 sequence (P35351 whole entry): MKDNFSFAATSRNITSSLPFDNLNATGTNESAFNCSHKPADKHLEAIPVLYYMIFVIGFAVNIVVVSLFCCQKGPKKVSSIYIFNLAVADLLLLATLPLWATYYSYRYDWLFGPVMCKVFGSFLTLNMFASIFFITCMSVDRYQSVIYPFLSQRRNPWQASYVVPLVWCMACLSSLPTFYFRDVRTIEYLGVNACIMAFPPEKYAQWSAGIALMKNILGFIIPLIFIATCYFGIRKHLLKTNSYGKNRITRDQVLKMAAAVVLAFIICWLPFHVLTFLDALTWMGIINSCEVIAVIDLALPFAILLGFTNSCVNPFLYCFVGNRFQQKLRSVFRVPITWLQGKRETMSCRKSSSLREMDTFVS

Assay [2] addresses T2, Type-1 angiotensin II receptor A (Rattus norvegicus, UniProt P25095).
T2 sequence (P25095 whole entry): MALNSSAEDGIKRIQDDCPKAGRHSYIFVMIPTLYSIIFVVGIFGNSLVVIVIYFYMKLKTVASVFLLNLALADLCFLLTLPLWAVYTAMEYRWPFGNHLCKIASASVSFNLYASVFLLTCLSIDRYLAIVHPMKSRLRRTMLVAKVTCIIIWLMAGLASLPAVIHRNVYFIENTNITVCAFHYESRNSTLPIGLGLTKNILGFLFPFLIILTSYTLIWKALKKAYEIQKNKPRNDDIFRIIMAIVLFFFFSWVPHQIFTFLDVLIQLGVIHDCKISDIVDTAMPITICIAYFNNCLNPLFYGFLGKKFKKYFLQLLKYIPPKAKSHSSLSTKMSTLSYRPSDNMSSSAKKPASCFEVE

A value given as a limit tells only on which side of the number the result lay.

One may read the Ki as the dissociation constant of the complex between target and ligand, obtained from inhibition or displacement. A higher Ki goes with a looser hold on the target.

`CCCCc1ncc(/C=C(\Cc2cccs2)C(=O)O)n1Cc1ccc(C(=O)O)cc1` [(E)-3-[2-n-butyl-1-{(4-carboxyphenyl)methyl}-1H-imidazol-5-yl]-2-(2-thienyl)methyl-2-propenoic acid]: in assay [1], the Ki was over 10 µM.
The molecule `CCCc1nc(-n2cccc2C(=O)C(F)(F)F)c(C(=O)O)n1Cc1ccc(-c2ccccc2-c2nn[nH]n2)cc1` yielded a Ki in assay [1] of over 10 µM.
For the molecule `CCc1nc2c(C)cc(C)nc2n1-c1ccc(-c2ccccc2-c2nnn[nH]2)cc1` [CAS_123856], the Ki in assay [1] is over 10 µM; in assay [2] it was 0.0007 µM.

Values taken from BindingDB's records for PubMed 7891350 (Parke-Davis Pharmaceutical Research, 1995).
